Test system: sepsis in conscious sheep
Test: Ang II infusion in E. coli-induced sepsis in conscious sheep (FIG. 1)
Format: in vivo
Settings: sepsis + Ang II infusion period, four conscious sheep
Experimental: Seven female Merino ewes weighing between 34.2 kg and 47.3 kg were procured for chronic instrumentation. The sheep were held and studied in metabolic cages, with free access to food and water. The animals underwent two separate operative procedures. For all procedures, anaesthesia was induced with sodium thiopentone (15 mg/kg) for endotracheal tube placement (cuff size 10). Maintenance anaesthesia was by means of oxygen/air/isoflurane (1 to 2%). Fractional inspired oxygen was altered to maintain PaO2 at approximately 100 mm Hg, and ventilation was controlled to maintain PaCO2 at approximately 40 mm Hg.
First, a left-sided thoracotomy was performed. The pericardium was opened, and a transit time flow probe (20 mm, Transonics Systems, Ithaca, N.Y.) was placed around the pulmonary artery to measure cardiac output. After two weeks recovery, a left-sided flank incision was made and a retroperitoneal dissection was performed to expose the left renal artery. […]
Analog signals of mean arterial pressure (MAP), central venous pressure (CVP), cardiac output (CO), and renal blood flow (RBF) were collected using a PC using a customized data acquisition system (Labview National Instruments). Data were recorded at 100 Hz for 10 s at every minute throughout the experimental protocol. Total peripheral conductance (TPC) (cardiac output/mean arterial pressure) and renal vascular conductance (RVC) (renal blood flow/mean arterial pressure) were calculated.
During the experimental periods MAP, CVP, CO, RBF and heart rate were measured continuously. Following a 12-hour baseline period, sheep were monitored for a 48 hour control period. After 7 days, sheep were monitored for a 2nd baseline period, followed by induction of sepsis by intravenous administration of a bolus of live E. coli (3.9×10^9 colony forming units in 15 mL saline), followed by a continuous infusion ([…] at 5 mL/h) for 48 h. […]
In both treatments, after the 12-hour baseline period, normal saline (1 mL/kg/h) was infused to avoid hypovolemia. Urinary output was measured and urine sampled every 90 minutes. […]

angiotensin II (DRVYIHPF; Angiotensin-2; UniProt P01019 25-32, looked up) [Ang II, vasoconstricting agent with preferential action on the efferent arteriole of the glomerulus; acts at the AT-1 receptor]
return these variables to normal: renal blood flow (increased in sepsis) | mean arterial pressure (reduced in sepsis) | urine output (reduced in sepsis)
